Experiments:
[1] = tested on: Sprague-Dawley rats; test: Antinociceptive testing (tail flick / plantar test) after intrathecal or intravenous administration; type: in vivo; settings: rat
Method: The following sequence protocol was used for the acute intrathecal administration to Sprague-Dawley rats. Each rat only underwent one cycle of the sequence protocol:
Intrathecal catheter placement was carried out as first described by Yaksh and Rudy (1976) The general thrust of the catheter placement involves the PE-10 catheter inserted into the subarachnoid space via the antlanto-occipital membrane (as the entry point) and threaded down to the lumber expansion of the spinal cord (spinal cord level L5/L6). The catheter tip is then exteriorised over the forehead. All animals are, assessed for normal motor function and behaviour post-surgery. […]
Drugs were administered in a 0.1 ml volume followed by 0.1 ml saline (0.9% sodium chloride solution; Baxter, Toongabbie, N.S.W., Australia) flush. Tail flick nociception was measured at 15, 30, and in the case of 0.1 mg/kg CP 55,940, 45 min after intravenous administration.
The antinociception tests were all conducted using the Plantar Test Instrument (Ugo Basile, Varese, Italy) which comprises a movable infra-red (IR) heat source, a glass pane onto which the 3-compartment rat enclosure is placed and a controller. […] The withdrawal latency is measured by the time difference between the activation of the IR heat source and physical withdrawal of the paw or tail from the stimulus. […]

[2] = molecular target: T1, CB1 receptor (Rattus norvegicus, UniProt P20272); test: Radioligand binding assay, rat cerebellum membranes
T1 construct: the cerebellum was dissected away from the rest of the brain, weighed and homogenised; from tissue; host or cells: Sprague Dawley rat cerebellum membranes
Method: The affinity of compounds at cannabinoid receptors is routinely assessed using ligand binding assays known to those skilled in the art. Radioligand binding assays were conducted using rat cerebellum or rat spleen. The cerebellum of the rat is known to express predominantly, if not exclusively, the CB1 receptor subtype (20,21). Thus, binding constants obtained from these studies are characterised by a single affinity value, as only one receptor type is labelled. […] In contrast, biphasic binding curves in the spleen characterised by two affinity constants represent the profile of compounds showing selectivity for one receptor subtype over another. In order to determine the order of selectivity, the high and low affinity values obtained for these compounds in the spleen binding assays were compared to the single affinity estimates obtained for the cerebellum (CB1) assays.
Sprague Dawley rats of either sex (200-300 g) were killed by gassing with 80% CO2 in O2 and decapitation, and the entire brain excised rapidly and placed in ice-cold Tris-HCl buffer (Tris 50 mM, MgCl2 3 mM, EGTA 0.2 mM, pH to 7.4 with HCl). On ice, the cerebellum was dissected away from the rest of the brain, weighed and homogenised (PT-DA 1205/2EC Polytron Aggregate; Kinematica, Luzernerstrasse Switzland) in 10 volumes of ice-cold Tris-HCl buffer. The homogenate was then made up to 20 volumes and centrifuged (Model J2-M1, Beckman, Fullerton, Calif., U.S.A.) at […] for 15 min at 4° C.). Subsequently, the supernatant was discarded, the pellet resuspended in 20 volumes of buffer and centrifuged as before. The resulting pellet was then resuspended in 20 volumes of buffer and assayed for protein content using the method of Bradford (Bradford, 1976) in a Novaspec II spectrophotometer (Pharmacia Biotech; with bovine serum albumin (BSA; Hömosafe BSA, c/o ‘ScimaR’ Templestowe, Australia) as the standard. The homogenate was then recentrifuged and the final pellet resuspended in Tris-HCl buffer at a protein concentration of 5 mg/ml and stored in 500 μl aliquots at −80° C. until used in the binding assay.
Ligand binding assays were performed in polypropylene tubes in a total volume of 1 ml containing Tris-HCl buffer, a final concentration of 1 mg/ml BSA, and varying concentrations of drugs. Tubes contained 30 μg of membrane protein and incubation was started by the addition of 100 μl of either 0.5 nM [^3H]SR141716A or 0.2 nM [^3H]WIN 55,212-2. Experiments were carried out in triplicate at 30° C. for 90 min with non-specific binding being defined as radioligand binding in the presence of 1 μM unlabelled WIN 55,212-2. Incubations were terminated by rapid filtration with a M-24 Cell Harvester (Brandel; Gaithersburg, Md., U.S.A.) using ice-cold Tris-HCl buffer containing 0.5 mg/ml BSA. Filters (Wattman GF/B) were soaked for 2 h prior to filtering in a solution of Tris-HCl buffer containing 3 mg/ml BSA and 0.5% w/w polyethyleneimine (PEI). Filters were left to dry thoroughly before placement into scintillation vials with 5 ml of scintillation cocktail (Ultima Gold LSC-cocktail; Packard Bioscience, Meriden, Conn., U.S.A.) being added. Vials were left to stand overnight before the radioactivity was determined using a Model 1409 DSA Liquid Scintillation counter (EG&E Wallac, Gaithersburg, Md., U.S.A.).
The resulting radioligand binding curves were analyzed by nonlinear regression using the program PRISM 3.0 (GraphPad Software, San Diego, Calif.) in order to derive ligand affinity estimates for the cannabinoid receptor(s).

T1 sequence (P20272 whole entry): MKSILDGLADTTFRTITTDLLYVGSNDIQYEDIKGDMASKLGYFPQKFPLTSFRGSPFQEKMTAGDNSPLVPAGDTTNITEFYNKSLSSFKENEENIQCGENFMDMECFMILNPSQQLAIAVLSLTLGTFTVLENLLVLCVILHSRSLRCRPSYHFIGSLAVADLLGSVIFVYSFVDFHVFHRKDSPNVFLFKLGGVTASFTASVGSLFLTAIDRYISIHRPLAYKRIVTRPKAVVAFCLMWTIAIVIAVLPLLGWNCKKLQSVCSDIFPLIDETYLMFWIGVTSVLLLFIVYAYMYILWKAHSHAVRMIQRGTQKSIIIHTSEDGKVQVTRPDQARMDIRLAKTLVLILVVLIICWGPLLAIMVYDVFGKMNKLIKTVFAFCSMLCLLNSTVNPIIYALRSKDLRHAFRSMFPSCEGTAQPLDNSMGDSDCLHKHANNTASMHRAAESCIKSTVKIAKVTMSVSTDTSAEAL

For `c1ccc(Cc2noc(-c3cn(CCN4CCCC4)c4ccccc34)n2)cc1` [Compound 1, 3-(3-Benzyl-[1,2,4]-oxadiazol-5-yl)-1-[2-(pyrrolidin-1-yl)ethyl]-1H-indole], the antinociceptive effect ([1]; i.t. route) was “provided an antinociceptive effect”, the antinociceptive effect ([1]; i.v. route) was “provided an antinociceptive effect” and the IC50 [2] was 0.05 µM.

Source: patent US6930118B2, “3-Oxadiazol-5-yl-1-aminoalkyl-1h-indole derivatives” (Amrad Operations Pty. Ltd., priority 2001, dated 2005)
